Earlier results on 1 compound are cited in patent publication US8895756B2, “Bendamustine pharmaceutical compositions” (priority 2005, dated 2014).

For this series the following is noted: pure tertiary butanol vs pure acetic acid, dimethyl sulfoxide, methylhydroxy, water or TBA/water mixtures; cited from earlier work.

Take `CN(CC(N)=O)C(=O)N(CCCl)N=O` [SarCNU]: the “relative stability in solvents” value is “more stable in pure tertiary butanol”.
